Patent US10294212B2 (CURADEV PHARMA PRIVATE LTD., priority 2013, dated 2019)

How the values were obtained:
[1] = molecular target: Human TDO (hTDO)-transfected CHO-K1 cells (Homo sapiens (Human), UniProt P48775); test: CHO-K1 cell based TDO assay; conditions: hTDO cellular assay
How it was run: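 Kynurenine output was read by LC/MS/MS after TCA precipitation and 15 min at 65° C. Before that, CHO-K1 cells stably carrying human TDO2 were incubated 2 h with compounds (typically 31 μM to 10 nM) and 80 μM L-tryptophan in HBSS. Decrease versus DMSO vehicle gave percent inhibition, then IC50.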

CT-26 tumor cells = test: Antitumor activity in syngeneic CT26/Balb/C tumor model; type: in vivo, Balb/c mice; conditions: 60 mg/kg oral BID, vs control animals
Protocol: Tumor volume reduction by the test compounds was evaluated in a syngeneic CT26/Balb/C tumor model as described below. Balb/c mice were purchased from Vivo Bio Tech, Hyderabad, India, and housed in sterile conditions using an individually ventilated caging system manufactured by Citizen Industries Limited, Ahmedabad, India. Mice were quarantined for at least 7 days before experimentation.
Mouse colorectal tumor forming cells, CT-26 cells (ATCC, USA), were cultured in DMEM and 10% FBS medium supplemented with lx non-essential amino acid (HiMedia) in an incubator maintained at 37QC with 95% humidity and 5% CO2. One million (1×10^6) live syngeneic CT-26 cells suspended in 0.2 ml of […] were injected subcutaneously in the right flank of each Balb/c mouse (age 6-8 weeks, weight: about 18-20 g) on day 1 under anesthesia. Eight to ten mice were used per experimental group. Subcutaneous cells formed localized tumors. Animals were visually inspected twice a day. Tumor measurements were initiated 7 days post injection using Vernier calipers. Tumor sizes at day 7 ranged typically from 80-150 mm^3. Tumor dimensions were subsequently measured every 3 to 4 days and tumor volume was determined. Assuming tumors to be ellipsoid, tumor volume was calculated using the formula: V=(D×d×d)/2
Where D is longest diameter in mm, and d is shortest diameter in mm.
When the average tumor volume in the mice reached 100-120 mm^3, tumor bearing mice were randomized for treatment with either test compound or vehicle alone. Test compounds were formulated generally in normal saline comprising Polyethylene Glycol (PEG400), Propylene glycol (PG) and Dimethyl Acetamide (DACM) at pH 4.5-5.0 and dosed orally at ranges 40-75 mg/kg (dose volume—5 mL/kg) twice a day. Solutions of the compounds were prepared immediately before dosing the animals. In general, tumor volume was measured at various times post-dosing from day 1 to day 34.
A non-limiting example is provided. Tumor bearing mice were dosed orally twice a day at 40 mg/kg body weight with either vehicle control or test compound 2 formulated in 30% Polyethylene Glycol (PEG-400), 20% Propylene glycol (PG) in normal saline. Tumors were measured and tumor volumes were determined at 1, 4, 6, 9, 11, and 14 days after the first dose as described above. Animals were sacrificed on day 14. Tumor and blood samples were harvested for further analysis. Just prior to animal sacrifice, blood was drawn retro-orbitally into a tube containing 0.2% EDTA for plasma collection. The harvested tumors were weighed and snap frozen in liquid nitrogen immediately. Plasma KYN concentrations are measured for pharmacokinetic analysis using LC/MS/MS using an API4000 mass spectrometer (Applied Biosystems) coupled to a Shimadzu Prominence LC system fitted with a C18 column.

[2] = molecular target: Human indoleamine 2,3-dioxygenase1 (hIDO1) (Homo sapiens (Human), UniProt P14902); test: In-vitro IDO1 enzyme assay (conversion of L-tryptophan to KYN); type: biochemical; conditions: read-out: IC50 (IDO1) Enz
How it was run: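 Kynurenine formation quantified by HPLC absorbance at 360 nm or LC/MS/MS after TCA quench and 15 min at 65 °C. Reaction: 10 nM N-His hIDO1, 30 μM tryptophan, ascorbate/methylene blue/catalase, pH 6.5 phosphate buffer, 37 °C for 30 min. Inhibition relative to 1% DMSO vehicle, fitted to IC50.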

IDO1 in HeLa cells = IDO1 in HeLa cells (Homo sapiens (Human), UniProt P14902); test: HeLa cell based IDO1 assay (IFNγ-induced, KYN in supernatant)
How it was run: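 Kynurenine in the supernatant, quantified by C-18 HPLC with 360 nm absorbance after TCA hydrolysis (65 °C, 15 min), was the read-out. Compounds (typically 10 μM to 1 nM) were added in HBSS containing 80 μM tryptophan to HeLa cells pre-induced overnight with 50 ng/mL IFNγ. IC50 came from nonlinear fits of % inhibition versus 1% DMSO vehicle.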

Chain of IDO1 in HeLa cells (P14902 whole entry): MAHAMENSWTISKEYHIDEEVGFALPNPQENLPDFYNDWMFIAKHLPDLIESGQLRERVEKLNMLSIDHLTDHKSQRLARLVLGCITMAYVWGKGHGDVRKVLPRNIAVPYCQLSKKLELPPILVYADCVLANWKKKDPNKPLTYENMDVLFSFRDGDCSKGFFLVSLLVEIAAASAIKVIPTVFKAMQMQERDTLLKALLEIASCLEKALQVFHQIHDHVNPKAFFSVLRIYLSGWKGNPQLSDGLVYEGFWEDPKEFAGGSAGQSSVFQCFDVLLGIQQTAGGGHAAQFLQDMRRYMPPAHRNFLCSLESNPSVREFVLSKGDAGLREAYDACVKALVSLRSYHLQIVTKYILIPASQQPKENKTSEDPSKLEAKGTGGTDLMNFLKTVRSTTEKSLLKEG
Chain of Human indoleamine 2,3-dioxygenase1 (hIDO1) (P14902 whole entry): as above
Chain of Human TDO (hTDO)-transfected CHO-K1 cells (P48775 whole entry): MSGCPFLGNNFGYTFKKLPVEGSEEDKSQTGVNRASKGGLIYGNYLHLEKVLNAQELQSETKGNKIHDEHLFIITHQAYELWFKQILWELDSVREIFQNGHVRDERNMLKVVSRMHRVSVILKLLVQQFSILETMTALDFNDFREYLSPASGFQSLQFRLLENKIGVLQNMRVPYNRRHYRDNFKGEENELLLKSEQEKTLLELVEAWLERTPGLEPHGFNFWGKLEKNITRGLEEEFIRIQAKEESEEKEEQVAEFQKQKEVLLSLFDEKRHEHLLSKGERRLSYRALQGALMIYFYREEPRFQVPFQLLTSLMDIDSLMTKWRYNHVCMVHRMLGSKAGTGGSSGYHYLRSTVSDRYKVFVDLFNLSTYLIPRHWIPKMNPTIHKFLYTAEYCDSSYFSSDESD

Nc1oc2c(Cl)nccc2c1Nc1ccc(F)c(Cl)c1 [Compound 166, 7-Chloro-N3-(3-chloro-4-fluorophenyl)furo[2,3-c]pyridine-2,3-diamine]
IC50 [1]: < 500 nM
reduction of tumor growth (CT-26 tumor cells): 26%-38
IC50 [2]: < 200 nM
IC50 (IDO1 in HeLa cells): < 200 nM

Nc1oc2c(-c3ccnc(C(=O)NCCN4CCOCC4)c3)nccc2c1Nc1ccc(F)c(Cl)c1 [Compound 274, 4-(2-Amino-3-((3-chloro-4-fluorophenyl)amino)furo[2,3-c]pyridin-7-yl)-N-(2-morpholinoethyl)picolinamide]
IC50 [1]: 500 to 2000 nM
IC50 [2]: < 200 nM
IC50 (IDO1 in HeLa cells): < 200 nM

CCCCCNC(=O)c1cc(-c2nccc3c(Nc4ccc(F)c(Cl)c4)c(N)oc23)ccn1 [Compound 275, 4-(2-Amino-3-((3-chloro-4-fluorophenyl)amino)furo[2,3-c]pyridin-7-yl)-N-pentylpicolinamide]
IC50 [1]: > 2000 nM
IC50 [2]: < 200 nM
IC50 (IDO1 in HeLa cells): 200 to 1000 nM

Nc1oc2c(-c3cc(F)ccc3Cl)nccc2c1Nc1ccc(F)c(Cl)c1 [Compound 276, N^3-(3-Chloro-4-fluorophenyl)-7-(2-chloro-5-fluorophenyl)furo[2,3-c]pyridine-2,3-diamine]
IC50 [1]: 500 to 2000 nM
IC50 [2]: < 200 nM
IC50 (IDO1 in HeLa cells): < 200 nM

Cc1cc(C)cc(-c2nccc3c(Nc4ccc(F)c(Cl)c4)c(N)oc23)c1 [Compound 277, N^3-(3-Chloro-4-fluorophenyl)-7-(3,5-dimethylphenyl)furo[2,3-c]pyridine-2,3-diamine]
IC50 [1]: 500 to 2000 nM
IC50 [2]: < 200 nM
IC50 (IDO1 in HeLa cells): < 200 nM

Nc1oc2c(-c3cc(F)cc(F)c3)nccc2c1Nc1ccc(F)c(Cl)c1 [Compound 278, N^3-(3-Chloro-4-fluorophenyl)-7-(3,5-difluorophenyl)furo[2,3-c]pyridine-2,3-diamine]
IC50 [1]: 500 to 2000 nM
IC50 [2]: < 200 nM
IC50 (IDO1 in HeLa cells): < 200 nM

CCOC(=O)Nc1oc2c(-c3ccnc(C)c3)nccc2c1N(C(=O)OCC)c1ccc(F)c(F)c1 [Compound 279, Ethyl (3,4-difluorophenyl)(2-((ethoxycarbonyl)amino)-7-(2-methylpyridin-4-yl)furo[2,3-c]pyridin-3-yl)carbamate]
IC50 [1]: > 2000 nM
IC50 [2]: > 1000 nM
IC50 (IDO1 in HeLa cells): > 1000 nM

Nc1oc2c(/C=C/c3ccccc3)nccc2c1Nc1ccc(F)c(Cl)c1 [Compound 280, N^3-(3-Chloro-4-fluorophenyl)-7-styrylfuro[2,3-c]pyridine-2,3-diamine]
IC50 [1]: 500 to 2000 nM
IC50 [2]: < 200 nM
IC50 (IDO1 in HeLa cells): < 200 nM
